Ends that are not written are not given here.
What was measured:
[1] = system: antibodies in sera from HCV-seropositive donors; test: ELISA with HCV antibody-positive sera (biotinylated peptides on streptavidin- or avidin-coated plates, unbiotinylated peptides coated directly); assay type: binding, human
In short: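 Peptides coated either directly at 2–5 or 3 μg/ml in carbonate buffer pH 9.6, or biotinylated at 1 μg/ml on streptavidin-coated wells (3 μg/ml). Plates casein-blocked, then human sera (1:100 or 1:20) incubated 1 h at 37° C. Bound antibody detected with HRP anti-human Ig/TMB, read as OD450.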

[2] = ELISA with seronegative / negative control sera (specificity); assay type: binding, human
In short: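 Specificity readout is OD at 450 nm (HRP goat anti-human Ig, TMB/H2O2, sulfuric acid stop), with ≥0.250 counted positive. Seronegative donor sera (typically 1:100, 1 h, 37° C) were applied to casein-blocked wells coated with peptide directly or via streptavidin capture of biotinylated peptide.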

ETWKKPDYEPPVVHGCPLPP
optical density (450 nm) ([1]; Table 4G, serum 1, 20-fold dilution): 2.523
optical density (450 nm) ([1]; Table 4G, serum 33, 20-fold dilution): 1.463
optical density (450 nm) ([1]; Table 4G, serum 39, 20-fold dilution): 0.068
optical density (450 nm) ([1]; Table 4G, serum 47, 20-fold dilution): 2.117
optical density (450 nm) ([1]; Table 4G, serum 79, 20-fold dilution): 1.739
optical density (450 nm) ([1]; Table 4G, serum 83, 20-fold dilution): 1.121
optical density (450 nm) ([1]; Table 4G, serum 88, 20-fold dilution): 0.972
optical density (450 nm) ([1]; Table 4G, serum 89, 20-fold dilution): 2.079
optical density (450 nm) ([1]; Table 4G, serum 91, 20-fold dilution): 2.202
optical density (450 nm) ([1]; Table 4G, serum 99, 20-fold dilution): 1.253
optical density (450 nm) ([1]; Table 4G, serum 104, 20-fold dilution): 1.864
optical density (450 nm) ([1]; Table 4G, serum 105, 20-fold dilution): 1.522
optical density (450 nm) ([1]; Table 4G, serum 110, 20-fold dilution): 1.981
optical density (450 nm) ([1]; Table 4G, serum 111, 20-fold dilution): 1.363
optical density (450 nm) ([1]; Table 4G, serum 112, 20-fold dilution): 1.172
optical density (450 nm) ([1]; Table 4G, serum 116, 20-fold dilution): 1.534
optical density (450 nm) ([1]; Table 4G, serum 120, 20-fold dilution): 1.599
optical density (450 nm) ([1]; Table 5, sample 8242 (positive), peptide concentration 0.01 micrograms per milliliter, listed as Unbiotinylated HCV peptide XVIII): 0.048
optical density (450 nm) ([1]; Table 5, sample 8242 (positive), peptide concentration 0.03 micrograms per milliliter, listed as Unbiotinylated HCV peptide XVIII): 0.049
optical density (450 nm) ([1]; Table 5, sample 8242 (positive), peptide concentration 0.1 micrograms per milliliter, listed as Unbiotinylated HCV peptide XVIII): 0.047
optical density (450 nm) ([1]; Table 5, sample 8242 (positive), peptide concentration 0.3 micrograms per milliliter, listed as Unbiotinylated HCV peptide XVIII): 0.048
optical density (450 nm) ([1]; Table 5, sample 8242 (positive), peptide concentration 1.0 micrograms per milliliter, listed as Unbiotinylated HCV peptide XVIII): 0.049
optical density (450 nm) ([1]; Table 5, sample 8242 (positive), peptide concentration 3.0 micrograms per milliliter, listed as Unbiotinylated HCV peptide XVIII): 0.053
optical density (450 nm) ([1]; Table 5, sample 8243 (positive), peptide concentration 0.01 micrograms per milliliter, listed as Unbiotinylated HCV peptide XVIII): 0.053
optical density (450 nm) ([1]; Table 5, sample 8243 (positive), peptide concentration 0.03 micrograms per milliliter, listed as Unbiotinylated HCV peptide XVIII): 0.053
optical density (450 nm) ([1]; Table 5, sample 8243 (positive), peptide concentration 0.1 micrograms per milliliter, listed as Unbiotinylated HCV peptide XVIII): 0.051
optical density (450 nm) ([1]; Table 5, sample 8243 (positive), peptide concentration 0.3 micrograms per milliliter, listed as Unbiotinylated HCV peptide XVIII): 0.054
optical density (450 nm) ([1]; Table 5, sample 8243 (positive), peptide concentration 1.0 micrograms per milliliter, listed as Unbiotinylated HCV peptide XVIII): 0.053
optical density (450 nm) ([1]; Table 5, sample 8243 (positive), peptide concentration 3.0 micrograms per milliliter, listed as Unbiotinylated HCV peptide XVIII): 0.057
optical density (450 nm) ([1]; Table 5, sample 8318 (positive), peptide concentration 0.01 micrograms per milliliter, listed as Unbiotinylated HCV peptide XVIII): 0.048
optical density (450 nm) ([1]; Table 5, sample 8318 (positive), peptide concentration 0.03 micrograms per milliliter, listed as Unbiotinylated HCV peptide XVIII): 0.047
optical density (450 nm) ([1]; Table 5, sample 8318 (positive), peptide concentration 0.1 micrograms per milliliter, listed as Unbiotinylated HCV peptide XVIII): 0.047
optical density (450 nm) ([1]; Table 5, sample 8318 (positive), peptide concentration 0.3 micrograms per milliliter, listed as Unbiotinylated HCV peptide XVIII): 0.047
optical density (450 nm) ([1]; Table 5, sample 8318 (positive), peptide concentration 1.0 micrograms per milliliter, listed as Unbiotinylated HCV peptide XVIII): 0.045
optical density (450 nm) ([1]; Table 5, sample 8318 (positive), peptide concentration 3.0 micrograms per milliliter, listed as Unbiotinylated HCV peptide XVIII): 0.051
optical density (450 nm) ([1]; Table 5, sample 8326 (positive), peptide concentration 0.01 micrograms per milliliter, listed as Unbiotinylated HCV peptide XVIII): 0.051
optical density (450 nm) ([1]; Table 5, sample 8326 (positive), peptide concentration 0.03 micrograms per milliliter, listed as Unbiotinylated HCV peptide XVIII): 0.051
optical density (450 nm) ([1]; Table 5, sample 8326 (positive), peptide concentration 0.1 micrograms per milliliter, listed as Unbiotinylated HCV peptide XVIII): 0.049
optical density (450 nm) ([1]; Table 5, sample 8326 (positive), peptide concentration 0.3 micrograms per milliliter, listed as Unbiotinylated HCV peptide XVIII): 0.053
optical density (450 nm) ([1]; Table 5, sample 8326 (positive), peptide concentration 1.0 micrograms per milliliter, listed as Unbiotinylated HCV peptide XVIII): 0.053
optical density (450 nm) ([1]; Table 5, sample 8326 (positive), peptide concentration 3.0 micrograms per milliliter, listed as Unbiotinylated HCV peptide XVIII): 0.052
optical density (450 nm) ([2]; Table 4G, negative serum): 0.001
optical density (450 nm) ([2]; Table 5, sample 1747 (negative), peptide concentration 0.01 micrograms per milliliter, listed as Unbiotinylated HCV peptide XVIII): 0.047
optical density (450 nm) ([2]; Table 5, sample 1747 (negative), peptide concentration 0.03 micrograms per milliliter, listed as Unbiotinylated HCV peptide XVIII): 0.044
optical density (450 nm) ([2]; Table 5, sample 1747 (negative), peptide concentration 0.1 micrograms per milliliter, listed as Unbiotinylated HCV peptide XVIII): 0.045
optical density (450 nm) ([2]; Table 5, sample 1747 (negative), peptide concentration 0.3 micrograms per milliliter, listed as Unbiotinylated HCV peptide XVIII): 0.046
optical density (450 nm) ([2]; Table 5, sample 1747 (negative), peptide concentration 1.0 micrograms per milliliter, listed as Unbiotinylated HCV peptide XVIII): 0.045
optical density (450 nm) ([2]; Table 5, sample 1747 (negative), peptide concentration 3.0 micrograms per milliliter, listed as Unbiotinylated HCV peptide XVIII): 0.048
optical density (450 nm) ([2]; Table 5, sample 1781 (negative), peptide concentration 0.01 micrograms per milliliter, listed as Unbiotinylated HCV peptide XVIII): 0.053
optical density (450 nm) ([2]; Table 5, sample 1781 (negative), peptide concentration 0.03 micrograms per milliliter): 0.051
optical density (450 nm) ([2]; Table 5, sample 1781 (negative), peptide concentration 0.1 micrograms per milliliter, listed as Unbiotinylated HCV peptide XVIII): 0.051
optical density (450 nm) ([2]; Table 5, sample 1781 (negative), peptide concentration 0.3 micrograms per milliliter, listed as Unbiotinylated HCV peptide XVIII): 0.051
optical density (450 nm) ([2]; Table 5, sample 1781 (negative), peptide concentration 1.0 micrograms per milliliter, listed as Unbiotinylated HCV peptide XVIII): 0.054
optical density (450 nm) ([2]; Table 5, sample 1781 (negative), peptide concentration 3.0 micrograms per milliliter, listed as Unbiotinylated HCV peptide XVIII): 0.055

— US6667387B1, “HCV core peptides” (priority 1992, dated 2003)
